Measurements published in US7714146B2, “Azulene-oxindole compounds as multiple-kinase inhibitors and useful as anticancer agents” (Industrial Technology Research Institute, priority 2006, dated 2010).

Experiments:
Assay type in all cases: biochemical
[1] = molecular target: T1, human c-KIT (Thr544-Val976) (Homo sapiens, UniProt P10721); assay: c-KIT kinase assay (HTScan kit, DELFIA); settings: for inhibition at 0.1 µM: compound at 0.1 μM, read-out: c-KIT 0.1 μM, % of inhibition relative to control; for inhibition at 1 µM: compound at 1 μM, read-out: c-KIT 1 μM, % of inhibition relative to control
T1 construct: human c-KIT (Thr544-Val976); GST (N); purchased Cell Signaling Technology; host or cells: baculovirus expression system
T1 sequence (P10721 544-976): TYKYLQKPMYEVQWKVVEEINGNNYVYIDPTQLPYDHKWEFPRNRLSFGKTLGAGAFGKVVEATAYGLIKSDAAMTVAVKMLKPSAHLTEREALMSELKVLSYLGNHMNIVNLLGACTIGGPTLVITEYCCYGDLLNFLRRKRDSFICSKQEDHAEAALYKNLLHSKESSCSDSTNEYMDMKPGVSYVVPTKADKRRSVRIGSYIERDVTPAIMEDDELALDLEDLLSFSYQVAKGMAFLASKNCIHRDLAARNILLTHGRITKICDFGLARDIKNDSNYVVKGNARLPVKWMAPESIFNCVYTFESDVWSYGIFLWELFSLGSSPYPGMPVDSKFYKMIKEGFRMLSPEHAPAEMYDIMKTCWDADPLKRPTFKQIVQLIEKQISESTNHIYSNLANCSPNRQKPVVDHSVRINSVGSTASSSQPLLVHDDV
Protocol: (§1) Compounds 1-100 were treated for their efficacy in inhibiting activities of FLT-3, c-KIT, KDR/Flk-1, PDGFR-beta, EGFR, and PKC kinases by biochemical DELFIA (Dissociation Enhanced Lanthanide FIA) assays according to the procedure described below. The assays were conducted by, Division of Cell Engineering, Biomedical Engineering Research Laboratories, Industrial Technology Research Institute, Bldg. 53, 195, sec. 4, Chung Hsing Rd. Chutung, Hsinchu, Taiwan 310, R.O.C.
(§2) The c-KIT assay was conducted following the protocol described in Protocol for HTScan® c-KIT Kinase Assay Kit (Cell Signaling Technology®). The assay was conducted under the following conditions: c-KIT source: The GST-c-KIT fusion protein was produced using a baculovirus expression system with a construct expressing human c-KIT (Thr544-Val976) with an amino-terminal GST tag, substrate: 1.5 μM This biotinylated peptide contains the residues surrounding Tyr-996 of KDR, vehicle: 1% DMSO, pre-incubation time/temperature: 5 minutes at room temperature, incubation time/temperature: 30 minutes at room temperature, incubation buffer: 60 mM HEPES pH 7.5, 5 mM MgCl2, 5 mM MnCl2, 3 μM Na3VO4, 1.25 mM DTT, 20 μM ATP, and quantitative method: DELFIA® Assay.

[2] = molecular target: T2, human FLT-3 (Arg571-Ser993) (Homo sapiens, UniProt P36888); assay: FLT-3 kinase assay (HTScan kit, DELFIA); settings: for inhibition at 1 µM: compound at 1 μM, read-out: FLT-3 1 μM, % of inhibition relative to control; for inhibition at 0.1 µM: compound at 0.1 μM, read-out: FLT-3 0.1 μM, % of inhibition relative to control
T2 construct: human FLT-3 (Arg571-Ser993); GST (N); purchased Cell Signaling Technology; host or cells: baculovirus expression system
T2 sequence (P36888 571-993): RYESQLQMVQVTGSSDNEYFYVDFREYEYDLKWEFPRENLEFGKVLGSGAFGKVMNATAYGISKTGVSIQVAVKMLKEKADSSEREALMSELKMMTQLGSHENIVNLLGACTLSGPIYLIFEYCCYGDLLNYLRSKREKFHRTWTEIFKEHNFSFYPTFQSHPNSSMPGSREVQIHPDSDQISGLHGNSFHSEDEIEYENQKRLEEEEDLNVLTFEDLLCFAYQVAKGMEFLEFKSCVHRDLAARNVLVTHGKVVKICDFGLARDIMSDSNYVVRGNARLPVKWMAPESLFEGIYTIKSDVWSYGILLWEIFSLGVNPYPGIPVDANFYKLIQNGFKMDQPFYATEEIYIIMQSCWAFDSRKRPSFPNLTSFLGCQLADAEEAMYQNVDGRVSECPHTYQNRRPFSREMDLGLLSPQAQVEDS
Protocol: as §1
as §2, with “FLT-3” for “c-KIT”, “GST-kinase” for “GST-c-KIT”, “FLT-3 (Arg571-Ser993) (GenBank accession No. NM_004119)” for “c-KIT (Thr544-Val976)”, “Gastrin Precursor Biotinylated Peptide (with Tyr87 as phosphorylation site),” for “This biotinylated peptide contains the residues surrounding Tyr-996 of KDR,”

[3] = molecular target: T3, human VEGFR-2 (Val789-Val1356) (Homo sapiens, UniProt P35968); assay: KDR kinase assay (HTScan VEGFR-2 kit, DELFIA); settings: for inhibition at 0.1 µM: compound at 0.1 μM, read-out: KDR 0.1 μM, % of inhibition relative to control; for inhibition at 1 µM: compound at 1 μM, read-out: KDR 1 μM, % of inhibition relative to control
T3 construct: human VEGFR-2 (Val789-Val1356); GST (N); purchased Cell Signaling Technology; host or cells: baculovirus expression system
T3 sequence (P35968 789-1356): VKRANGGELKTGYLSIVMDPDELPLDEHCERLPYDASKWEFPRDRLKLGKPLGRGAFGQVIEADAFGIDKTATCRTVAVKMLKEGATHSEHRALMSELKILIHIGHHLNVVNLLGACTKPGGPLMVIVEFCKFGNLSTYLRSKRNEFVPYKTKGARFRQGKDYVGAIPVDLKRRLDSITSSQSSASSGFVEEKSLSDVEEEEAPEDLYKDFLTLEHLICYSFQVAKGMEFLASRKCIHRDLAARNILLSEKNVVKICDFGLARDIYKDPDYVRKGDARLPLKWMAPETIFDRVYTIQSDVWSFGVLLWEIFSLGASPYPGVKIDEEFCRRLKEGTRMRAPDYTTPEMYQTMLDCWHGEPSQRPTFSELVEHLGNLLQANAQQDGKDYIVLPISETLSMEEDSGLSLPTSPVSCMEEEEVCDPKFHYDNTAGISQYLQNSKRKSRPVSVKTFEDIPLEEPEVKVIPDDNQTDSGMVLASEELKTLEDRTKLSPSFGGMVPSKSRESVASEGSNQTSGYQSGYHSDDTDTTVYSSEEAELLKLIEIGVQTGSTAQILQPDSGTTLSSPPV
Protocol: as §1
as §2, with “The KDR” for “The c-KIT”, “HTScan® VEGFR-2” for “HTScan® c-KIT”, “conditions: KDR” for “conditions: c-KIT”, “The GST-Kinase” for “The GST-c-KIT”, “human VEGFR-2 (Val789-Val1356) (GenBank Accession No. NM_002253)” for “human c-KIT (Thr544-Val976)”, “μM Gastrin Precursor Biotinylated Peptide (with Tyr87 as phosphorylation site),” for “μM This biotinylated peptide contains the residues surrounding Tyr-996 of KDR,”

inhibition at 0.1 µM [1]	inhibition at 1 µM [1]	inhibition at 1 µM [2]	inhibition at 0.1 µM [2]	inhibition at 0.1 µM [3]	inhibition at 1 µM [3]	Compound
28.2%	28.2%	–	–	–	–	COC(=O)c1cc(/C=C2\C(=O)Nc3ccc(F)cc32)c2cccccc1-2 [Compound 76, 3-(5-Fluoro-2-oxo-1,2-dihydro-indol-3-ylidenemethyl)-azulene-1-carboxylic acid methyl ester]
–	–	14.7%	–	–	–	O=C1/C(=C\c2ccc3cccccc2-3)c2ccccc2N1C(c1ccccc1)c1ccccc1 [Compound 4, 3-Azulen-1-ylmethylene-1-benzhydryl-1,3-dihydro-indol-2-one]
57.1%	57.1%	55.7%	50.5%	6.7%	32.2%	Cc1[nH]c(/C=C2\C(=O)Nc3ccc(F)cc32)c2ccc(=O)ccc12 [Compound 63, 1-(5-Fluoro-2-oxo-1,2-dihydro-indol-3-ylidenemethyl)-3-methyl-2H-cyclohepta[c]pyrrol-6-one]
19.3%	19.3%	47.3%	24.2%	–	16.8%	CNS(=O)(=O)c1ccc2c(c1)/C(=C\c1cc(C)c3c(OCCCN(C)C)ccccc1-3)C(=O)N2 [Compound 88, 3-[4-(3-Dimethylamino-propoxy)-3-methyl-azulen-1-ylmethylene]-2-oxo-2,3-dihydro-1H-indole-5-sulfonic acid methylamide]
30.6%	30.6%	23.9%	19.1%	30.5%	41.8%	CCOC(=O)N1CCC(Nc2ccc3c(c2)NC(=O)/C3=C/c2cc(C)c3c(OCCCN(C)C)ccccc2-3)CC1 [Compound 97, 4-{3-[4-(3-Dimethylamino-propoxy)-3-methyl-azulen-1-ylmethylene]-2-oxo-2,3-dihydro-1H-indol-6-ylamino}-piperidine-1-carboxylic acid ethyl ester]
–	–	43.4%	18.6%	39.5%	28.3%	O=C1Nc2ccc(Cl)cc2/C1=C/c1ccc2cccccc1-2 [Compound 23, 3-Azulen-1-ylmethylene-5-chloro-1,3-dihydro-indol-2-one]
0.6%	0.6%	7.6%	–	33.8%	22.1%	O=C1Nc2ccccc2/C1=C\c1ccc2cccccc1-2 [Compound 19, 3-Azulen-1-ylmethylene-1,3-dihydro-indol-2-one]
39.8%	39.8%	52.7%	30.6%	16.3%	20.1%	O=C1Nc2ccc(F)cc2/C1=C\c1ccc2cccc-2cc1 [Compound 53, 3-Azulen-6-ylmethylene-5-fluoro-1,3-dihydro-indol-2-one]
23.4%	23.4%	–	–	–	–	Cc1cc(C=C2C(=O)Nc3ccc(S(=O)(=O)Nc4ccccn4)cc32)c2cccccc1-2 [Compound 77]
19.6%	19.6%	17.7%	10.5%	20.8%	26.7%	CCc1cc(C=C2C(=O)Nc3ccc(S(=O)(=O)NCCCN4CCN(C)CC4)cc32)c2cccccc1-2 [Compound 83, 3-(3-Ethyl-azulen-1-ylmethylene)-2-oxo-2,3-dihydro-1H-indole-5-sulfonic acid [3-(4-methyl-piperazin-1-yl)-propyl]-amide]
56.5%	56.5%	52.4%	15.2%	1.1%	9.4%	Cc1cc(C=C2C(=O)Nc3cc(F)ccc32)c2ccccc(OCCCN(C)C)c1-2 [Compound 91, 3-[4-(3-Dimethylamino-propoxy)-3-methyl-azulen-1-ylmethylene]-6-fluoro-1,3-dihydro-indol-2-one]
31.5%	31.5%	6%	–	17.1%	69.2%	Cc1cc(/C=C2/C(=O)N(C(c3ccccc3)c3ccccc3)c3ccccc32)c2c(C)ccc(C(C)C)cc1-2 [Compound 14, 1-Benzhydryl-3-(5-isopropyl-3,8-dimethyl-azulen-1-ylmethylene)-1,3-dihydro-indol-2-one]
51.3%	51.3%	30.9%	23.3%	46.8%	46.9%	CN(C)Cc1cc(/C=C2/C(=O)Nc3ccc(F)cc32)c2cccccc1-2 [Compound 65, 3-(3-Dimethylaminomethyl-azulen-1-ylmethylene)-5-fluoro-1,3-dihydro-indol-2-one]
2.4%	2.4%	2%	–	–	4.4%	CCOC(=O)N1CCC(Nc2ccc3c(c2)/C(=C\c2cc(C)c4c(OCCCN(C)C)ccccc2-4)C(=O)N3)CC1 [Compound 85, 4-{3-[4-(3-Dimethylamino-propoxy)-3-methyl-azulen-1-ylmethylene]-2-oxo-2,3-dihydro-1H-indol-5-ylamino}-piperidine-1-carboxylic acid ethyl ester]
–	–	–	17.2%	32.9%	42.5%	COC(=O)C1C2=CC=CC=C(OC)C2=C(/C=C2\C(=O)Nc3ccc(F)cc32)C1OC (stereo not drawn) [Compound 69, 3-(5-Fluoro-2-oxo-1,2-dihydro-indol-3-ylidenemethyl)-2,4-dimethoxy-1,2-dihydro-azulene-1-carboxylic acid methyl ester]
–	–	69.4%	45.8%	5.1%	70.9%	Cc1cc(/C=C2/C(=O)N(Cc3ccc(C#N)cc3)c3ccccc32)c2c(C)ccc(C(C)C)cc1-2 [Compound 74, 4-[3-(5-Isopropyl-3,8-dimethyl-azulen-1-ylmethylene)-2-oxo-2,3-dihydro-indol-1-ylmethyl]-benzonitrile]
–	–	32.8%	33.9%	40.4%	52.4%	COc1ccc(CN2C(=O)/C(=C/c3cc(C)c4cc(C(C)C)ccc(C)c3-4)c3ccccc32)cc1 [Compound 73, 3-(5-Isopropyl-3,8-dimethyl-azulen-1-ylmethylene)-1-(4-methoxy-benzyl)-1,3-dihydro-indol-2-one]
